{"source": "patent US12024494B2", "about": "“Salt of LSD1 inhibitor and a polymorph thereof” (CSPC ZHONGQI PHARMACEUTICAL TECHNOLOGY (SHIJIAZHUANG) CO., …, priority 2018, dated 2024)", "key": {"[1]": {"molecular_target": "LSD1 (Homo sapiens (Human), UniProt O60341)", "assay": "LSD1 inhibition, enzyme fluorescent conjugated method", "format": "biochemical", "details": "10 concentrations, initial 10 μM, 3-fold dilution, read-out: IC50 (nM) Mean ± standard deviation", "procedure": "The experiment was conducted in duplicate with an initial concentration of 10 μM diluted in a gradient of 3 times, and it was repeated twice at different dates.\nLSD1 buffer composition: 50 mM Tris-HCl, pH 7.5, 0.05% CHAPS, 1% DMSO.\nReaction time: reacted at room temperature for 1 hour\n1.2.1 Adding enzyme to a freshly prepared buffer\n1.2.2 Adding a DMSO solution of the compound to the enzyme mixture using Acoustic Technology (Echo 550, LabCyte Inc. Sunnyvale, CA) at nL level, and incubating at room temperature for 30 minutes\n1.2.3 Adding the substrate to a freshly prepared buffer\n1.2.4 Incubating at room temperature for 1 hour\n1.2.5 Preparing to test the mixture\n1.2.6 Using Perkin Elmer Envision to read data\n1.2.7 Using Excel and GraphPad Prism software to analyze data"}, "[2]": {"tested_on": "human small cell lung cancer NCI-H1417 cell subcutaneous xenograft tumor", "assay": "In vivo efficacy on NCI-H1417 subcutaneous xenograft tumor in CB-17 SCID mouse", "details": "for TGI (%) (Day 35) / Tumor volume (mm^3) (Day 35): PO, QD", "procedure": "Week age and weight: 6-8 weeks old, weight: 16-21 grams\nHuman small cell lung cancer NCI-H1417 cells were cultured in a monolayer in vitro with RPMI-1640 medium plus 10% fetal bovine serum, at 37° C. and 5% CO2 to culture and passage. When the cell saturation was 80%-90%, the cells were collected by trypsin-EDTA digestion, counted, adjusted to 10×10^7 cells/mL and resuspended in PBS.\n0.2 mL (10×10^6 cells) of NCI-H1417 cells (with Matrigel, volume ratio 1:1) were subcutaneously inoculated on the right back of each mouse. When the average tumor volume reached about 100-150 mm^3, the mice were grouped randomly and started to be administered.\nThe experimental vehicle was a 0.5% methyl cellulose solution. 5 g of methyl cellulose was weighed, dissolved in 800 mL of ultrapure water, stirred evenly and brought to the volume of 1000 mL with ultrapure water. The test substance was dissolved in the vehicle, prepared into a uniform solution of a certain concentration, and stored at 4° C.\nThe experimental indicator was to investigate whether the tumor growth was inhibited, delayed or cured. The tumor diameter was measured with a vernier caliper twice a week. The tumor volume is calculated by the formula of V=0.5a×b^2, where a and b represent the long diameter and short diameter of the tumor, respectively.\nTGI (%) is used for the anti-tumor efficacy of the compound. TGI (%) reflects the tumor growth inhibition rate. TGI (%)=[(1−(Average tumor volume at the end of the administration of a certain treatment group−average tumor volume at the beginning of the administration of the treatment group))/(Average tumor volume at the end of treatment in the vehicle control group−Average tumor volume at the beginning of the treatment in the vehicle control group)]×100%. Vehicle control group: Vehicle (0.5% methylcellulose solution)."}, "[3]": {"assay": "Hygroscopicity by dynamic vapor adsorption (DVS)", "format": "physicochemical", "details": "25° C. and 80% RH", "procedure": "Instrument model: SMS DVS Advantage dynamic vapor adsorption instrument Test conditions: a sample (10˜15 mg) was taken and placed in the DVS sample pan for testing.\nBalance: dm/dt=0.01%/min (shortest: 10 min, longest: 180 min)\ndrying: drying at 0% RH for 120 min\nRH (%) test step range: 0%-90%-0%\nExperimental Materials: SMS DVS Advantage dynamic vapor adsorption instrument"}, "[4]": {"assay": "Solid stability of the crystal form (XRPD) under high temperature, high humidity and light", "format": "physicochemical", "procedure": "For the samples placed under the conditions of high temperature (60° C.) and high humidity (relative humidity of 92.5% RH), the bottle opening was sealed with an aluminum foil, and some small holes were pierced in the aluminum foil to ensure that the sample can be sufficiently in contact with ambient air, and the samples were placed in the corresponding constant temperature and humidity ovens. The sample exposed to light (open, not covered with aluminum foil) and the control sample (the entire sample bottle was covered with aluminum foil) were placed in a light box. At each time point, 2 samples were weighed as formal test samples. […] The sample bottles were wrapped with an aluminum foil, and the aluminum foil was pierced with small holes. They were also placed in the corresponding constant temperature and humidity ovens. The sample was taken and detected (by XRPD) at the 5th day and 10th day, and the detection results were compared with the initial detection result at 0 day."}, "[5]": {"assay": "Solvent stability of the crystal form (suspension, 40° C., 2 days)", "format": "physicochemical", "details": "for Crystal form: 40° C., 2 days", "procedure": "Appropriate amounts of the compound III were weighed and added to different glass vials, and added respectively with appropriate amount of a solvent or a solvent mixture to prepare a suspension. After added with a magnet rotor and placed at room temperature, the above samples were placed on a constant temperature mixer (40° C.) to be shaken for 2 days (avoid from light). In order to ensure that the sample was as suspended as possible, the amount of the compound and the solvent would be adjusted according to the test phenomenon and even the container used in the experiment may be changed during the experiment. (The dissolved sample was evaporated naturally to dryness)."}}}
{"smiles": "N[C@H]1CC[C@H](c2nc(C3(CN[C@@H]4C[C@H]4c4ccccc4)CC3)no2)CC1", "note": "[Crystal form A of Compound III]", "values": [{"measurement": "IC50", "setting": "[1]", "value": 8, "unit": "nM"}, {"measurement": "TGI (%) (Day 35)", "setting": "[2]; 1 mg/kg", "value": 81.9, "unit": "%"}, {"measurement": "Tumor volume (mm^3) (Day 35)", "setting": "[2]; 1 mg/kg", "value": "178 ± 17", "unit": "mm^3"}, {"measurement": "TGI (%) (Day 35)", "setting": "[2]; 1.5 mg/kg", "value": 99.2, "unit": "%"}, {"measurement": "Tumor volume (mm^3) (Day 35)", "setting": "[2]; 1.5 mg/kg", "value": "121 ± 15", "unit": "mm^3"}, {"measurement": "TGI (%) (Day 35)", "setting": "[2]; 3 mg/kg", "value": 115.6, "unit": "%"}, {"measurement": "Tumor volume (mm^3) (Day 35)", "setting": "[2]; 3 mg/kg", "value": "68 ± 13", "unit": "mm^3"}, {"measurement": "Anti-tumor effect (conclusion)", "setting": "[2]; NCI-H1417 xenograft tumor model", "value": "excellent anti-tumor effect"}, {"measurement": "Classification of hygroscopicity", "setting": "[3]", "value": "slightly hygroscopic"}, {"measurement": "ΔW (moisture weight gain)", "setting": "[3]", "value": 1.14, "unit": "%"}, {"measurement": "Crystal form", "setting": "[4]; 0 day (initial)", "value": "Crystal Form A"}, {"measurement": "Crystal form", "setting": "[4]; High humidity (relative humidity 92.5%, open), 5th day", "value": "Crystal Form A"}, {"measurement": "Crystal form", "setting": "[4]; High humidity (relative humidity 92.5%, open), 10th day", "value": "Crystal Form A"}, {"measurement": "Crystal form", "setting": "[4]; High temperature (60° C., open), 5th day", "value": "Crystal Form A"}, {"measurement": "Crystal form", "setting": "[4]; High temperature (60° C., open), 10th day", "value": "Crystal Form A"}, {"measurement": "Crystal form", "setting": "[4]; Light (total illuminance = 1.2 × 10^6 Lux·hr/near ultraviolet = 200 w·hr/m^2, open), 5th day", "value": "Crystal Form A"}, {"measurement": "Crystal form", "setting": "[4]; Light (total illuminance = 1.2 × 10^6 Lux·hr/near ultraviolet = 200 w·hr/m^2, open), 10th day", "value": "Crystal Form A"}, {"measurement": "Solid stability (conclusion)", "setting": "[4]; high temperature, high humidity and strong light", "value": "good stability"}, {"measurement": "Crystal form", "setting": "[5]; Acetonitrile", "value": "Crystal form A"}, {"measurement": "Crystal form", "setting": "[5]; Isopropanol", "value": "Crystal form A"}, {"measurement": "Crystal form", "setting": "[5]; Isopropyl acetate", "value": "Crystal form A"}, {"measurement": "Crystal form", "setting": "[5]; Methanol, dissolved, and then precipitated", "value": "Crystal form A"}, {"measurement": "Crystal form", "setting": "[5]; Tetrahydrofuran", "value": "Crystal form A"}, {"measurement": "Solvent stability (conclusion)", "setting": "[5]; in the solvent", "value": "good stability"}]}
